Test results reported in publication PMC10583352, “B7H3 targeting gold nanocage pH-sensitive conjugates for precise and synergistic chemo-photothermal therapy against NSCLC” (Journal of Nanobiotechnology, 2023).

How the values were obtained:
NCI-H1299 cells [1] = test: Cell cycle analysis (PI/RNase, flow cytometry); type: cell-based, human; settings: without irradiation, 1 μg/mL Dox equivalent, 24 h
Protocol: Next, Dox, GNCs, B7H3@GNCs, Dox@GNCs, or B7H3/Dox@GNCs (1 μg/mL Dox equivalent) were added to the culture medium. […] After the cells were fixed, RNase A solution was added to degrade RNA, and cells were stained with PI. Finally, the samples were subjected to cell cycle analysis using flow cytometry. ROS was detected using the method described above, except that the cells were stained with DCFH-DA and analyzed using flow cytometry.

NCI-H1299 cells [2] = test: MTT cytotoxicity with/without NIR irradiation; type: cell-based, human; settings: without irradiation, 24 h
Protocol: The cytotoxicity of B7H3/Dox@GNCs on tumor cells was assessed using the MTT assay. Briefly, NCI-H1299 cells (4 × 10^3 cells/well) were seeded in a 96-well plate and incubated for 12 h until the cells were completely attached. […] The cells were cultured for another 12 h and cell viability was determined using the MTT method.

[3] = Biodistribution of Dox in tumor-bearing mice; type: in vivo, BALB/c athymic nude male mice; settings: i.v. 3 mg/kg Dox
Protocol: A xenograft model was established using BALB/c athymic nude male mice (weight: 20 ± 2 g) and NCI-H1299 cells. […] The collected tissues were rinsed in ice-cold physiological saline to remove the superficial blood and other debris and stored at − 80 ℃ until analysis. The collected tissues were diced into small pieces and homogenized with three volumes of saline. Subsequently, 100 μL plasma and tissue homogenate samples were spiked with 10 μL epirubicin as the internal standard and vortex-mixed with 300 μL methanol for 5 min. After 15 min of centrifugation at 15,000 × g and 4 °C to precipitate proteins, 5 μL supernatant aliquots were analyzed using HPLC–MS/MS.

NCI-H1299 lung tumor = test: Histological examination (H&E, CD34 IHC) of tissues of xenograft-bearing mice; type: in vivo; settings: xenograft-bearing mice after i.v. administration
[4] = tested on: NCI-H1299 cell-derived xenograft; test: Antitumor efficacy in NCI-H1299 cell-derived xenograft; type: in vivo, BALB/c nude mice; settings: 14 day treatment
Protocol: The heterotopic xenograft mouse model of NSCLC was established by subcutaneous injection of 1.0 × 10^7 NCI-H1299 cells into the right dorsal side of BALB/c nude mice. The tumor size and body weight of the mice were measured and recorded every 2 days. The tumor volume (mm^3) was calculated using the formula: V = W^2 × L/2, where the width (W) and length (L) were measured using an electronic caliper. When the tumor volume reached 80–100 mm^3, mice were administered i.v. Dox at a dose of 3 mg/kg in the indicated formulation at 3 day intervals via the tail vein until euthanized.

[5] = Pharmacokinetics after single i.v. administration in rats (plasma Dox, LC-MS/MS); type: in vivo, Sprague–Dawley rats; settings: 3 mg/kg Dox equivalent, Mean ± SD, n = 6
Protocol: The pharmacokinetic properties of B7H3/Dox@GNCs were studied using 18 male Sprague–Dawley rats, weighing 200 ± 20 g. The rats were randomly divided into three groups (n = 6 per group) and administered Dox•HCl, Dox@GNCs, and B7H3/Dox@GNCs (3 mg/kg Dox equivalent dose) intravenously (i.v.) through the tail vein. Next, 300 μL blood samples were collected into heparinized tubes from the venous plexus at 0, 0.05, 0.13, 0.25, 0.5, 1, 1.5, 2, 4, 6, 8, 12, and 24 h. After centrifugation at 3000 × g for 15 min, the plasma samples were obtained and stored at – 80 ℃ until analysis.
The collected tissues were diced into small pieces and homogenized with three volumes of saline. Subsequently, 100 μL plasma and tissue homogenate samples were spiked with 10 μL epirubicin as the internal standard and vortex-mixed with 300 μL methanol for 5 min. After 15 min of centrifugation at 15,000 × g and 4 °C to precipitate proteins, 5 μL supernatant aliquots were analyzed using HPLC–MS/MS.

With `COc1cccc2c1C(=O)c1c(O)c3c(c(O)c1C2=O)C[C@@](O)(C(=O)CO)C[C@@H]3O[C@H]1C[C@H](N)[C@H](O)[C@H](C)O1.Cl` [Dox, doxorubicin hydrochloride] the “effect on cell cycle” value (NCI-H1299 cells [1]) was “stagnated in the S phase and G2/M phase”, the IC50 (NCI-H1299 cells [2]) was 2.50 µg/mL and the “Dox concentrations in heart, liver, lungs, spleen and kidneys versus Dox@GNCs and B7H3/Dox@GNCs groups” value [3] was “significantly higher”. The “heart tissue histology (H&E)” value (NCI-H1299 lung tumor) was “Dox-induced damage to the heart was observed”, the “body weight of mice” value [4] was “drastic decrease in body weight” and the tumor growth ([4]; xenograft mice, i.v.) was “suppressed tumor growth”. The CL [5] was 2.17 ± 0 mL/min/kg, the “MRT0-∞” value [5] was 9.43 ± 0.46 h and the T1/2 [5] was 8.67 ± 0.34 h. The Vd [5] was 1.64 ± 0.41 L/kg.
